The series relates to CCRIS mutagenicity, Ames/micronucleus/aberration tests. Put plainly: CCRIS mutagenicity studies.
Setting [1] is: Test System: AMES SALMONELLA TYPHIMURIUM, Strain/Indicator: TA98, Metabolic Activation: NONE, Method: STANDARD PLATE.
The mark [2] stands for this setting: Test System: AMES SALMONELLA TYPHIMURIUM, Strain/Indicator: TA100, Metabolic Activation: NONE, Method: STANDARD PLATE.
The mark [3] stands for this setting: Test System: AMES SALMONELLA TYPHIMURIUM, Strain/Indicator: TA100, Metabolic Activation: NONE, Method: PREINCUBATION

This is an account of results in PubChem BioAssay AID1259407 (Chemical Carcinogenesis Research Information System (CCRIS), 2018).

SMILES strings stand for the structures. Activity calls are given as the source filed them. How the calls were made is not given here.

Turning to `Cc1ccc([N+](=O)[O-])c(C)c1[N+](=O)[O-]`, the mutagenic call is, setting by setting: (Test System: AMES SALMONELLA TYPHIMURIUM, Strain/Indicator: TA98, Metabolic Activation: NONE, Method: PREINCUBATION) “inactive; negative”; (Test System: AMES SALMONELLA TYPHIMURIUM, Strain/Indicator: TA98, Metabolic Activation: RAT, LIVER, S-9, KANECHLOR 500, Method: PREINCUBATION) “inactive; negative”; (Test System: AMES SALMONELLA TYPHIMURIUM, Strain/Indicator: TA100, Metabolic Activation: RAT, LIVER, S-9, KANECHLOR 500, Method: PREINCUBATION) “active; positive”.

Take `O[C@@H]1C=Cc2c(cc3ccc4cccc5ccc2c3c45)[C@H]1O`: where the note is “Test System: CHINESE HAMSTER V-79, Strain/Indicator: V-79/OUABAIN, Metabolic Activation: HAMSTER, EMBRYO, CELL-MEDIATED, Method: STANDARD PLATE”, the mutagenic call is “active; positive”.

Take `Cn1c2ccccc2c2cc(N)ccc21`: the mutagenic call under setting [1] is “active; positive”; the mutagenic call (Test System: AMES SALMONELLA TYPHIMURIUM, Strain/Indicator: TA98, Metabolic Activation: RAT LIVER S-9, AROCLOR 1254, Method: STANDARD PLATE) is “active; positive”; the mutagenic call under setting [2] is “active; positive”; the mutagenic call (Test System: AMES SALMONELLA TYPHIMURIUM, Strain/Indicator: TA100, Metabolic Activation: RAT LIVER S-9, AROCLOR 1254, Method: STANDARD PLATE) is “active; positive”.

Turning to `C=C(Br)C=O`, the mutagenic call is “active; positive” (Test System: AMES SALMONELLA TYPHIMURIUM, Strain/Indicator: TA100, Metabolic Activation: NONE, Method: LIQUID INCUBATION); “active; positive” under setting [3]; “active; positive” (Test System: AMES SALMONELLA TYPHIMURIUM, Strain/Indicator: TA100, Metabolic Activation: NONE, Method: PREINCUBATION, LIQUID INCUBATION); “active; positive” under setting [2]; “active; positive” (Test System: AMES SALMONELLA TYPHIMURIUM, Strain/Indicator: TA100, Metabolic Activation: RAT, LIVER, MICROSOMES, Method: PREINCUBATION); “active; positive” (Test System: AMES SALMONELLA TYPHIMURIUM, Strain/Indicator: TA104, Metabolic Activation: NONE, Method: PREINCUBATION). In addition, the mutagenic call reads like this: (Test System: AMES SALMONELLA TYPHIMURIUM, Strain/Indicator: TA1535, Metabolic Activation: NONE, Method: LIQUID INCUBATION) “active; positive”; (Test System: AMES SALMONELLA TYPHIMURIUM, Strain/Indicator: TA1535, Metabolic Activation: NONE, Method: PREINCUBATION, LIQUID INCUBATION) “active; positive”; (Test System: UDS RAT HEPATOCYTES, Strain/Indicator: THY INCORP, Metabolic Activation: NONE) “inactive; negative”.

Take `O=[N+]([O-])c1cc2c3c(c1)CCc1c4c(cc(c1-3)CC2)CCCC4`: the mutagenic call (Test System: AMES SALMONELLA TYPHIMURIUM, Strain/Indicator: TA98(1,8-DNP6), Metabolic Activation: NONE) was “active; positive”; the mutagenic call (Test System: AMES SALMONELLA TYPHIMURIUM, Strain/Indicator: TA98(1,8-DNP6), Metabolic Activation: RAT, LIVER, S-9, AROCLOR 1254) is “active; positive”; the mutagenic call (Test System: AMES SALMONELLA TYPHIMURIUM, Strain/Indicator: TA98(NR), Metabolic Activation: NONE) was “active; positive”; the mutagenic call (Test System: AMES SALMONELLA TYPHIMURIUM, Strain/Indicator: TA98(NR), Metabolic Activation: RAT, LIVER, S-9, AROCLOR 1254) was “active; positive”; the mutagenic call (Test System: AMES SALMONELLA TYPHIMURIUM, Strain/Indicator: TA98, Metabolic Activation: NONE) is “active; positive”; the mutagenic call (Test System: AMES SALMONELLA TYPHIMURIUM, Strain/Indicator: TA98, Metabolic Activation: RAT, LIVER, S-9, AROCLOR 1254) is “active; positive”. For the same molecule, the mutagenic call is, setting by setting: (Test System: AMES SALMONELLA TYPHIMURIUM, Strain/Indicator: TA100(NR), Metabolic Activation: NONE) “active; positive”; (Test System: AMES SALMONELLA TYPHIMURIUM, Strain/Indicator: TA100(NR), Metabolic Activation: RAT, LIVER, S-9, AROCLOR 1254) “active; positive”; (Test System: AMES SALMONELLA TYPHIMURIUM, Strain/Indicator: TA100, Metabolic Activation: NONE) “active; positive”; (Test System: AMES SALMONELLA TYPHIMURIUM, Strain/Indicator: TA100, Metabolic Activation: RAT, LIVER, S-9, AROCLOR 1254) “active; positive”; (Test System: AMES SALMONELLA TYPHIMURIUM, Strain/Indicator: TA104, Metabolic Activation: NONE) “active; positive”; (Test System: AMES SALMONELLA TYPHIMURIUM, Strain/Indicator: TA104, Metabolic Activation: RAT, LIVER, S-9, AROCLOR 1254) “active; positive”.

Consider `COc1ccc2c(c1OC)C(=O)O[C@@H]2[C@H]1c2c(cc3c(c2OC)OCO3)CCN1C`, for which the mutagenic call was “active; positive (ploidy changes)” (End Point: CHROMOSOMAL ABERRATIONS, Test System: HUMAN LYMPHOCYTES, Metabolic Activation: NONE, Method: FISH); “active; positive for micronucleated, binucleated and multinucleated cells when agent adm” (End Point: In vivo micronucleus, Test System: Micronucleated, binucleated and multinucleated hepatocytes, Species: Mouse, Strain/Sex: ddY/Male, Route: Intravenous); “active; positive (aneuploidy and polyploidy)” (End Point: MICRONUCLEUS, Test System: HUMAN LYMPHOCYTES, Metabolic Activation: NONE).

As to `N[C@@H](Cc1c[nH]c2ccc(O)cc12)C(=O)O`, under setting [3], the mutagenic call is “inactive; negative”.

Consider `FC(F)(F)c1ccc(Cl)c(Cl)c1`, for which the mutagenic call was “inactive; negative” (Test System: E. coli, Strain/Indicator: WP2uvrA/pKM101, Metabolic Activation: None, Method: Preincubation); “inactive; negative” (Test System: E. coli, Strain/Indicator: WP2uvrA/pKM101, Metabolic Activation: Rat, Liver, S9, Sodium phenobarbital and 5,6-benzoflavone, Method: Preincubation).

On to `O=Nc1c(-c2ccc([N+](=O)[O-])cc2)nc2sccn12`, for which the mutagenic call by setting is: under setting [1], “active; positive”; under setting [2], “active; positive”; (Test System: AMES SALMONELLA TYPHIMURIUM, Strain/Indicator: TA1535, Metabolic Activation: NONE, Method: STANDARD PLATE) “active; positive”; (Test System: AMES SALMONELLA TYPHIMURIUM, Strain/Indicator: TA1537, Metabolic Activation: NONE, Method: STANDARD PLATE) “active; positive”; (Test System: AMES SALMONELLA TYPHIMURIUM, Strain/Indicator: TA1538, Metabolic Activation: NONE, Method: STANDARD PLATE) “active; positive”.
